Source: patent US20240109900A1, “AZABICYCLIC SHP2 INHIBITORS” (IRBM S.P.A., priority 2021, published 2024)
Like-named read-outs stand apart in the source and are kept apart here.

Assays:
[1] = target: SHP-2 enzyme (Met1-Leu525) (Homo sapiens (Human), UniProt Q06124); experiment: SHP2 inhibition enzymatic assay; assay type: biochemical; conditions: 0.5 nM SHP-2 activated by 500 nM IRS1 peptide, 75 μM DiFMUP substrate; read-out: SHP2wt-IC50
In short: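 SHP-2 (Met1-Leu525), 0.5 nM, activated with 500 nM IRS1 bis-phosphopeptide, preincubated 30 min with compounds in HEPES pH 7.2 buffer with 5 mM DTT. 75 μM DiFMUP added for 30 min at room temperature, stopped with bpV; fluorescence read. IC50 from four-parameter logistic fit of % inhibition.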

[2] = test system: ERK phosphorylation in KYSE-520 cells; experiment: Phospho-ERK cellular assay; assay type: cell-based; conditions: KYSE-520 cells, 2 h at 37° C., phospho-ERK1/2 (Thr202/Tyr204) TR-FRET, read-out: PERK IC50
In short: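 TR-FRET read-out of ERK1/2 Thr202/Tyr204 phosphorylation was taken after overnight antibody incubation at room temperature. Before that, KYSE-520 cells were treated 2 h at 37 °C with compound dilutions and lysed 30 min. Percent inhibition relative to vehicle and cell-free wells was fitted four-parametrically to give IC50.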

Chain of SHP-2 enzyme (Met1-Leu525) (Q06124 1-525): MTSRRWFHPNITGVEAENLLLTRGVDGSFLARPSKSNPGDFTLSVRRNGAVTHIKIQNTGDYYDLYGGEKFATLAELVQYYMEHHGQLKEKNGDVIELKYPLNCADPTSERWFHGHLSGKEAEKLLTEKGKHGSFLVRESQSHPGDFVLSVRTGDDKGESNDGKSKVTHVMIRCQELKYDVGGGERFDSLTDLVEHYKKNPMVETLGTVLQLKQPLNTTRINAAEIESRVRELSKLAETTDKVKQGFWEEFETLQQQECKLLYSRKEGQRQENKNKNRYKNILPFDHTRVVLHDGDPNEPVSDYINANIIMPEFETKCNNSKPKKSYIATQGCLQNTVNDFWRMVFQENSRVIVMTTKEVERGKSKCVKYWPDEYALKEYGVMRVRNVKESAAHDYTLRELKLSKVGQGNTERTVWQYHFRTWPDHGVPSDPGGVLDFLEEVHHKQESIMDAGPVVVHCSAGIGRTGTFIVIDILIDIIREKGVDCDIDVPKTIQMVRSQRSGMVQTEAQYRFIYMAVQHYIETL

Row | IC50 [1] [nM] | IC50 ([2]; Homo sapiens, KYSE-520, 2 h) [nM] | IC50 [2] [nM] | SMILES
1 | < 500 | < 1000 |  | COc1ccc(-c2n[nH]c3nc(N4CC[C@@H]5[C@H](C4)[C@@]5(CN)c4ccccc4F)cnc23)c2ccncc12 [Example 219, ((1S,6R,7R)-7-(2-fluorophenyl)-3-(3-(8-methoxyisoquinolin-5-yl)-1H-pyrazolo[3,4-b]pyrazin-6-yl)-3-azabicyclo[4.1.0]heptan-7-yl)methanamine]
2 | < 500 | < 1000 |  | Cc1cc([C@@]2(CN)[C@@H]3CCN(c4cnc5c(-c6ccc7nc(C)sc7c6Cl)n[nH]c5n4)C[C@@H]32)no1 [Example 107, ((1S,6R,7S)-3-(3-(7-chloro-2-methylbenzo[d]thiazol-6-yl)-1H-pyrazolo[3,4-b]pyrazin-6-yl)-7-(5-methylisoxazol-3-yl)-3-azabicyclo[4.1.0]heptan-7-yl)methanamine]
3 | < 500 | < 1000 |  | Cc1csc([C@@]2(CN)[C@@H]3CCN(c4cnc5c(-c6ccn7nc(C)cc7c6Cl)n[nH]c5n4)C[C@@H]32)n1 [Example 440, ((1S,6R,7S)-3-(3-(4-chloro-2-methylpyrazolo[1,5-a]pyridin-5-yl)-1H-pyrazolo[3,4-b]pyrazin-6-yl)-7-(4-methylthiazol-2-yl)-3-azabicyclo[4.1.0]heptan-7-yl)methanamine]
4 | < 500 | > 5000 |  | COc1ccc(-c2n[nH]c3nc(N4CC[C@@H]5[C@H](C4)[C@@]5(CN)c4ccccc4F)cnc23)nc1N [Example 214, 6-(6-((1S,6R,7R)-7-(aminomethyl)-7-(2-fluorophenyl)-3-azabicyclo[4.1.0]heptan-3-yl)-1H-pyrazolo[3,4-b]pyrazin-3-yl)-3-methoxypyridin-2-amine]
5 | < 500 | < 1000 |  | Cn1cc2c(Cl)c(-c3c[nH]c4nc(N5CC[C@@H]6[C@H](C5)[C@@]6(CN)c5ccccc5F)n(C)c(=O)c34)ccc2n1 [Example 378, 2-((1S,6R,7R)-7-(aminomethyl)-7-(2-fluorophenyl)-3-azabicyclo[4.1.0]heptan-3-yl)-5-(4-chloro-2-methyl-2H-indazol-5-yl)-3-methyl-3,7-dihydro-4H-pyrrolo[2,3-d]pyrimidin-4-one]
6 | < 500 | < 1000 |  | Cn1c(=O)n(C)c2c(Cl)c(-c3n[nH]c4nc(N5CC[C@@H]6[C@H](C5)[C@@]6(CN)c5ccccc5F)cnc34)ccc21 [Example 317, 5-(6-((1S,6R,7R)-7-(aminomethyl)-7-(2-fluorophenyl)-3-azabicyclo[4.1.0]heptan-3-yl)-1H-pyrazolo[3,4-b]pyrazin-3-yl)-4-chloro-1,3-dimethyl-1,3-dihydro-2H-benzo[d]imidazol-2-one]
7 | < 500 | < 1000 |  | NC[C@]1(c2ccccc2F)[C@@H]2CCN(c3cnc4c(-c5cccc6c5CCC(=O)N6)n[nH]c4n3)C[C@@H]21 [Example 293, 5-(6-((1S,6R,7R)-7-(aminomethyl)-7-(2-fluorophenyl)-3-azabicyclo[4.1.0]heptan-3-yl)-1H-pyrazolo[3,4-b]pyrazin-3-yl)-3,4-dihydroquinolin-2(1H)-one]
8 | < 500 | < 1000 |  | Cc1cc(C2(CN)C3CCN(c4cnc5c(Sc6ccnc7ccsc67)n[nH]c5n4)CC32)no1 (stereo not drawn) [Example 54, (7-(5-methylisoxazol-3-yl)-3-(3-(thieno[3,2-b]pyridin-7-ylthio)-1H-pyrazolo[3,4-b]pyrazin-6-yl)-3-azabicyclo[4.1.0]heptan-7-yl)methanamine]
9 | < 500 |  | < 1000 | Cc1csc(C2(CN)[C@@H]3CN(c4cnc5c(-c6ccc(C(N)=O)c7ncccc67)n[nH]c5n4)C[C@@H]32)n1 (stereo partly drawn) [Example 504]
10 | < 500 | < 1000 |  | Cc1conc1C1(CN)C2CCN(c3cnc4c(-c5ccc6onc(C)c6c5)n[nH]c4n3)CC21 (stereo not drawn) [Example 52, (3-(3-(3-methylbenzo[d]isoxazol-5-yl)-1H-pyrazolo[3,4-b]pyrazin-6-yl)-7-(4-methylisoxazol-3-yl)-3-azabicyclo[4.1.0]heptan-7-yl)methanamine]
11 | < 500 | < 1000 |  | Cc1cc(C2(CN)C3CCN(c4cnc5c(-c6ccc(C#N)c7ncccc67)n[nH]c5n4)CC32)no1 (stereo not drawn) [Example 32, 5-(6-(7-(aminomethyl)-7-(5-methylisoxazol-3-yl)-3-azabicyclo[4.1.0]heptan-3-yl)-1H-pyrazolo[3,4-b]pyrazin-3-yl)quinoline-8-carbonitrile]
12 | < 500 | < 1000 |  | NC[C@]1(c2ccccc2F)[C@@H]2CCN(c3cnc4c(-c5ccnc6occc56)n[nH]c4n3)C[C@@H]21 [Example 186, ((1S,6R,7R)-7-(2-fluorophenyl)-3-(3-(furo[2,3-b]pyridin-4-yl)-1H-pyrazolo[3,4-b]pyrazin-6-yl)-3-azabicyclo[4.1.0]heptan-7-yl)methanamine]
13 | < 500 | 1000 to 5000 |  | Cc1cc([C@@]2(CN)[C@@H]3CCN(c4cnc5c(-c6ccc7c(c6)OC(F)(F)O7)n[nH]c5n4)C[C@@H]32)no1 [Example 37, ((1S,6R,7S)-3-(3-(2,2-difluorobenzo[d][1,3]dioxol-5-yl)-1H-pyrazolo[3,4-b]pyrazin-6-yl)-7-(5-methylisoxazol-3-yl)-3-azabicyclo[4.1.0]heptan-7-yl)methanamine]
14 | < 500 | < 1000 |  | Cn1cnc2ccc(-c3n[nH]c4nc(N5CC[C@@H]6[C@H](C5)[C@@]6(CN)c5cc(F)ccc5F)cnc34)c(Cl)c21 [Example 396, ((1S,6R,7R)-3-(3-(7-chloro-1-methyl-1H-benzo[d]imidazol-6-yl)-1H-pyrazolo[3,4-b]pyrazin-6-yl)-7-(2,5-difluorophenyl)-3-azabicyclo[4.1.0]heptan-7-yl)methanamine]
15 | < 500 | < 1000 |  | Cc1c(-c2n[nH]c3nc(N4CC[C@@H]5[C@H](C4)[C@@]5(CN)c4ccccc4F)cnc23)cnn1C [Example 348, ((1S,6R,7R)-3-(3-(1,5-dimethyl-1H-pyrazol-4-yl)-1H-pyrazolo[3,4-b]pyrazin-6-yl)-7-(2-fluorophenyl)-3-azabicyclo[4.1.0]heptan-7-yl)methanamine]
16 | < 500 | < 1000 |  | NC[C@]1(c2ccccc2F)[C@@H]2CCN(c3cnc4c(-c5ccc6[nH]c(=O)ccc6c5)n[nH]c4n3)C[C@@H]21 [Example 234, 6-(6-((1S,6R,7R)-7-(aminomethyl)-7-(2-fluorophenyl)-3-azabicyclo[4.1.0]heptan-3-yl)-1H-pyrazolo[3,4-b]pyrazin-3-yl)quinolin-2(1H)-one]
17 | < 500 | < 1000 |  | CNC(=O)c1ccc(-c2n[nH]c3nc(N4CC[C@@H]5[C@H](C4)[C@@]5(CN)c4cccc(F)c4F)cnc23)c2cccnc12 [Example 267, 5-(6-((1S,6R,7R)-7-(aminomethyl)-7-(2,3-difluorophenyl)-3-azabicyclo[4.1.0]heptan-3-yl)-1H-pyrazolo[3,4-b]pyrazin-3-yl)-N-methylquinoline-8-carboxamide]
18 | < 500 | < 1000 |  | NC[C@]1(c2ccccc2F)[C@@H]2CCN(c3cnc4c(-c5cc(F)cc(F)c5)n[nH]c4n3)C[C@@H]21 [Example 330, ((1S,6R,7R)-3-(3-(3,5-difluorophenyl)-1H-pyrazolo[3,4-b]pyrazin-6-yl)-7-(2-fluorophenyl)-3-azabicyclo[4.1.0]heptan-7-yl)methanamine]
